From patent US7772271B2 (priority 2004, dated 2010) come the findings set out here.

The melting point is the temperature of the solid-liquid transition. Consider `CC[C@H](C)NS(=O)(=O)Nc1ccc(-c2c(C#N)c3ccc(OC4CCOCC4)cc3n2C2CCC2)cc1` [Compound 2835], for which the melting point lay in the range of 196 to 198 °C.

Take `CN1CCN(C(=O)c2ccc3c(C#N)c(-c4ccc(NS(=O)(=O)C5CC5)cc4)n(C4CCC4)c3c2)CC1` [Compound 3114]: the melting point fell in the range of 124 to 127 °C. Next, `Cc1csc(Nc2ccc(-c3c(C#N)c4ccc(Oc5ncccc5F)cc4n3C3CC3)cc2)n1` [Compound 3270]: 193 to 195 °C; `COCCN(C)C(=O)c1ccc2c(C#N)c(-c3ccc(NC(=O)O[C@H](C)C4CC4)cc3)n(C3CCC3)c2c1` [Compound 2791]: 96 to 98 °C; `N#Cc1c(-c2ccc(NC(=O)NC3CCC3)cc2)n(C2CC2)c2cc(N3CCOCC3)ccc12` [Compound 2858]: 230 to 232 °C.

`CC(C)S(=O)(=O)Nc1ccc(-c2c(C#N)c3ccc(OC(F)F)cc3n2CC2CCCO2)cc1` (centres unmarked) [Compound 1336] gave a melting point of 173 to 176 °C. The figure for `CCn1c(-c2ccc(NC(=O)O[C@H](C)C(F)(F)F)cc2)c(C#N)c2ccc(Oc3ncccn3)cc21` [Compound 2929] is 221 to 223 °C.

Molecule `COCCOc1ccc2c(C#N)c(-c3ccc(NC(=O)O[C@H](C)C4CC4)cc3)n(C(C)C)c2c1` [Compound 2719] yielded a melting point of 88 to 100 °C. Next, `Cc1ccc(-c2ccc3c(C#N)c(-c4ccc(NC(=O)O[C@H](C)C5CC5)cc4)n(C4CCC4)c3c2)nc1` [Compound 3002]: 88 to 102 °C. On to `COCCOc1ccc2c(C#N)c(-c3ccc(C(=O)NC4CCCC4)cc3)n(C3CCC3)c2c1` [Compound 2758], for which the melting point lay in the range of 194 to 196 °C. The figure for `C[C@@H](OC(=O)Nc1ccc(-c2c(C#N)c3ccc(-n4ccccc4=O)cc3n2C2CCC2)cc1)C(F)(F)F` [Compound 3316] is 244 to 245 °C; for `C[C@@H](OC(=O)Nc1ccc(-c2c(C#N)c3ccc(OCS(C)(=O)=O)cc3n2C2CCCC2)cc1)C1CC1` [Compound 3068] it is 218 to 224 °C. Next, `CC(C)OC(=O)Nc1ccc(-c2c(C#N)c3ccc(N4CCOCC4)cc3n2C2CC2)cc1` [Compound 2856]: 220 to 227 °C; `CC(C)OC(=O)Nc1ccc(-c2c(C#N)c3ccc(OCCN4CCC(O)C4)cc3n2C2CCC2)cc1` (centres unmarked) [Compound 1435]: 161 to 165 °C; `CCOc1ccc2c(C#N)c(-c3ccc(NC(=O)OC4CCN(C(C)=O)CC4)cc3)n(C3CCC3)c2c1` [Compound 3072]: 211 to 215 °C.

`CC(C)OC(=O)Nc1ccc(-c2c(C#N)c3ccc(OC4CCOCC4)cc3n2C2CCC2)cc1` [compound 2616, {4-[3-cyano-1-cyclobutyl-6-(tetrahydro-pyran-4-yloxy)-1H-indole-2-yl]-phenyl}-carbamic acid isopropyl ester] registered a melting point of 197 to 199 °C.

`CC(C)CS(=O)(=O)Nc1ccc(-c2c(C#N)c3ccc(N4CCCCC4)cc3n2C2CCC2)cc1` [Compound 2982] yielded a melting point of 198 to 202 °C. For `C[C@H](NS(=O)(=O)Nc1ccc(-c2c(C#N)c3ccc(Oc4ncccc4C#N)cc3n2C2CCC2)cc1)C1CC1` [Compound 3275], the melting point is 130 °C (dec.).

On to `CC(C)NS(=O)(=O)Nc1ccc(-c2c(C#N)c3ccc(OC4CCOCC4)cc3n2C2CCC2)cc1` [Compound 2786], for which the melting point lay in the range of 183 to 185 °C. The figure for `Cc1ccnc(Oc2ccc3c(C#N)c(-c4ccc(NC(C)C)cc4)n(C4CCC4)c3c2)n1` [Compound 3006] is 173 to 175 °C; for `COCCOc1ccc2c(C#N)c(-c3ccc(NC(=O)OC(c4ccccc4)C(F)(F)F)cc3)n(C(C)C)c2c1` (centres unmarked) [Compound 2688] it is 150 to 155 °C. Next, `CCn1ccnc1CCOc1ccc2c(C#N)c(-c3ccc(NC(=O)OC(C)C)cc3)n(C3CCC3)c2c1` [Compound 2842]: 203 to 212 °C. Next, `CC(C)Nc1ccc(-c2c(C#N)c3ccc(Oc4ncccc4F)cc3n2C2CCC2)cc1` [Compound 3004]: 188 to 190 °C.
